Where a name gives a salt, the structure may show the parent alone.
What was measured:
Type in all cases: in vivo
[1] = system: 5-month-old male Wistar rats; assay: Object recognition task after scopolamine treatment; conditions: for d2 difference from zero (one-sample t-tests) / effect on scopolamine-induced object memory dysfunction (comparison with scopolamine alone): present study; for d2 difference from zero (one-sample t-tests) / effect on scopolamine-induced object memory dysfunction (comparison with scopolamine alone) / Mean values (±SEM) of the indices of discrimination (d2) between the new and familiar objects: EVP-6124 0.03 mg/kg p.o., donepezil 0.1 mg/kg p.o., scopolamine 0.1 mg/kg i.p., 1 h delay; for Mean values (±SEM) of the indices of discrimination (d2) between the new and familiar objects: all 30 min before T1, n = 23
Description: The object recognition task allows the assessment of consolidation of (object) information into memory (Ennaceur and Delacour, 1988; Prickaerts et al., 1997). In this task a rat is given two trials. In the first trial the rat is put into an arena in which two identical objects are placed. Usually, a rate will inspect the two objects for a certain amount of time. After a certain delay, the rat is given a second trial. In this trial the rat is again placed in the same arena but one of the objects has been replaced by a novel object. Similar to the first trial the rat again explores the two objects. The amount of time exploring each object is recorded in order to determine whether the rat spent a different amount of time exploring the two objects. On basis of this scoring the memory performance can be determined.
All drugs were given 30 minutes before the first trial.
All experimental procedures were approved by the local ethical committee of the Maastricht University for animal experiments and met governmental guidelines. Twenty-four 5-month-old male Wistar rats (Harlan, The Netherlands) were used (average body weights: 465 g). […] The animals were individually housed in standard type 3 Makrolon cages on sawdust bedding in an air-conditioned room (about 20° C.). They were kept under a 12/12-hour light/dark cycle (lights on from 19.00 to 7.00 h) and had free access to food and water. Rats were housed in the same room as where the animals were tested. A radio, which was playing softly, provided background noise in the room. All testing was done between 9.00 and maximally 18.00 h.
EVP-6124 was dissolved in H2O. The solution was prepared daily and tested at a dose of 0.03 mg/kg p.o. (injection volume 2 ml/kg). […] Donepezil was dissolved in saline. The solution was prepared daily and tested at a dose of 0.1 mg/kg p.o. (injection volume 2 ml/kg). Administration was always 30 min before trial 1 immediately after (R)-7-chloro-N-(quinuclidin-3-yl)benzo[b]thiophene-2-carboxamide.
Subsequently donepezil, (R)-7-chloro-N-(quinuclidin-3-yl)benzo[b]thiophene-2-carboxamide and the combination of both were tested (n=8 per condition per day of testing). All rats were treated once with each dose condition. […] The experimentator was unaware of the condition/drugs being tested.
The object recognition test was performed as described elsewhere (Ennaceur and Delacour, 1988). The apparatus consisted of a circular arena, 83 cm in diameter. Half of the 40 cm high wall was made of gray polyvinyl chloride, the other half of transparent polyvinyl chloride. The light intensity was equal in the different parts of the apparatus. Two objects were placed in a symmetrical position about 10 cm away from the gray wall. Each object was available in triplicate. The objects were: 1) a cone consisting of a gray polyvinyl chloride base (maximal diameter 18 cm) with a collar on top made of brass (total height 16 cm), 2) a standard 1 l brown transparent glass bottle (diameter 10 cm, height 22 cm) filled with water, 3) a massive metal cube (10.0×5.0×7.5 cm) with two holes (diameter 1.9 cm), and 4) a massive aluminum cube with a tapering top (13.0×8.0×8.0 cm). A rat could not displace the objects. Fluorescent red tubes and a light bulb provided a constant illumination of about 20 lux on the floor of the apparatus.
A testing session comprised two trials. The duration of each trial was 3 min. During the first trial (T1) the apparatus contained two identical objects (samples). A rat was always placed in the apparatus facing the wall at the middle of the front (transparent) segment. After the first exploration period the rat was put back in its home cage.

[2] = system: 5-month-old male Wistar rats; assay: as above; conditions: previous study; for effect on object memory deficit induced by scopolamine: scopolamine 0.1 mg/kg i.p.
[3] = system: mild to moderate AD patients; conditions: 0.3 or 1.0 mg/d for 28 days, in addition to donepezil or rivastigmine; domains of non-verbal learning, memory, executive function
Method: The safety and efficacy of (R)-7-chloro-N-(quinuclidin-3-yl)benzo[b]thiophene-2-carboxamide HCl salt was assessed in a Phase 1b study of 48 mild to moderate AD patients 60-80 years of age, on stable donepezil (5 or 10 mg/day) or rivastigmine (6-12 mg/day administered as a twice daily dose, i.e., 3 or 6 mg per dose).
Patients were dosed with placebo or two different doses of (R)-7-chloro-N-(quinuclidin-3-yl)benzo[b]thiophene-2-carboxamide (0.3 or 1.0 mg/d) for 28 days. Safety was evaluated by adverse events, ECG, and clinical laboratory measures. Cognitive effects were measured by CogState computerized cognitive testing and a subset of NTB scales (category fluency, Trails A and B).

| Compound | d2 difference from zero (one-sample t-tests) [1] | effect on scopolamine-induced object memory dysfunction (comparison with scopolamine alone) [1] | Mean values (±SEM) of the indices of discrimination (d2) between the new and familiar objects [1] | effect on object memory deficit induced by scopolamine ([2]; 0.03 mg/kg p.o.) | effect on object memory deficit induced by scopolamine ([2]; 0.3 mg/kg p.o.) | cognitive function [3] | effect on scopolamine-induced object memory deficit ([2]; 0.1 mg/kg donepezil) | effect on scopolamine-induced object memory deficit ([2]; 0.3 mg/kg donepezil p.o.) | memory of the familiar object after 1 h delay interval ([1]; scopolamine 0.1 mg/kg i.p. alone) |
| --- | --- | --- | --- | --- | --- | --- | --- | --- | --- |
| O=C(N[C@H]1CN2CCC1CC2)c1cc2cccc(Cl)c2s1 [EVP-6124, (R)-7-chloro-N-(quinuclidin-3-yl)benzo[b]thiophene-2-carboxamide] | not different from zero | did not improve the memory | 0.00 (0.05) | had no effect | completely attenuated | showed an increase in cognitive function | – | – | – |
| COc1cc2c(cc1OC)C(=O)C(CC1CCN(Cc3ccccc3)CC1)C2 (centres unmarked) [donepezil, 1-benyzl-4-[(5,6-dimethoxy-1-indanon)-2-yl]methylpiperidine monohydrochloride] | not different from zero | did not improve the memory | −0.02 (0.05) | – | – | – | had no effect | attenuated | – |
| CN1[C@@H]2C[C@@H](OC(=O)[C@H](CO)c3ccccc3)C[C@H]1[C@@H]1O[C@@H]12 [scopolamine] | no difference | – | 0.02 (0.07) | – | – | – | – | – | no more memory of the familiar object was found |

— patent publication US20150126546A1, “Treatment of Cognitive Disorders with Certain Alpha-7 Nicotinic Acid Receptors in Combination with Acetylcholinesterase Inhibitors” (Forum Pharmaceuticals, Inc., priority 2009, published 2015)
